US20070128217A1 (priority 2003, published 2007)

Tests used:
[1] = test system: rabbit serum obtained by immunizing a rabbit with the SARS-CoV strain Frankfurt 1; type: binding; parameters: Binding of a rabbit serum to linear peptides / Binding of a rabbit serum to looped peptides / Rabbit serum linear peptides / Rabbit serum looped peptides / Binding of a rabbit serum to linear peptides of protein N of SARS-CoV Urbani (Rabbit serum linear peptides) / Binding of a rabbit serum to looped/cyclic peptides of protein N of SARS-CoV Urbani (Rabbit serum looped peptides): unit not given here
[2] = test system: antibodies in sera from SARS patients (sera 1a, 1b, 2, 6, 37, 62, London, SARS-yellow, SARS-green); type: binding, human; parameters: Binding of serum 6 to linear peptides of protein X1 of SARS-CoV Urbani / Binding of serum 37 to linear peptides of protein X1 of SARS-CoV Urbani / Binding of serum 6 to looped/cyclic peptide (PEPSCAN-ELISA) / Binding of serum 37 to looped/cyclic peptide (PEPSCAN-ELISA) / Binding of serum 37 to looped/cyclic peptides of protein X1 of SARS-CoV Urbani / Binding of serum 6 to linear peptides of protein X2 / Binding of serum 37 to linear peptides of protein X2 / Binding of serum 37 to looped/cyclic peptides of protein X2 of SARS-CoV Urbani / Binding of serum 6 to linear peptides of protein M of SARS-CoV Urbani / Binding of serum 37 to linear peptides of protein M of SARS-CoV Urbani / Binding of serum 6 to looped/cyclic peptides of protein M of SARS-CoV Urbani / Binding of serum 37 to looped/cyclic peptides of protein M of SARS-CoV Urbani / Binding of serum 6 to linear peptides of protein X3 of SARS-CoV Urbani / Binding of serum 37 to linear peptides of protein X3 of SARS-CoV Urbani / Binding of serum 37 to looped/cyclic peptides of protein X3 of SARS-CoV Urbani / Binding of serum 6 to linear peptides of protein X4 of SARS-CoV Urbani / Binding of serum 37 to linear peptides of protein X4 of SARS-CoV Urbani / Binding of serum 37 to looped/cyclic peptides of protein X4 of SARS-CoV Urbani / Binding of serum 6 to linear peptides of protein X5 of SARS-CoV Urbani / Binding of serum 37 to linear peptides of protein X5 of SARS-CoV Urbani / Binding of serum 37 to looped/cyclic peptides of protein X5 of SARS-CoV Urbani / Binding of serum 6 to linear peptides of protein N of SARS-CoV Urbani / Binding of serum 37 to linear peptides of protein N of SARS-CoV Urbani / Binding of serum 6 to linear peptide (PEPSCAN-ELISA) / Binding of serum 1a to looped/cyclic peptides of protein N of SARS-CoV Urbani / Binding of serum 1b to looped/cyclic peptides of protein N of SARS-CoV Urbani / Binding of serum 2 to looped/cyclic peptides of protein N of SARS-CoV Urbani / Binding of serum 6 to looped/cyclic peptides of protein N of SARS-CoV Urbani / Binding of serum 37 to looped/cyclic peptides of protein N of SARS-CoV Urbani / Binding of serum 62 to looped/cyclic peptides of protein N of SARS-CoV Urbani / Binding of serum London to looped/cyclic peptides of protein N of SARS-CoV Urbani / Binding of serum SARS-green to looped/cyclic peptides of protein N of SARS-CoV Urbani: unit not given here
[3] = test system: control sera (pooled serum of ten healthy LUMC hospital workers; commercial negative donor pooled serum from the Dutch bloodbank); type: binding, human; parameters: Binding of Control serum LUMC to linear peptides / Binding of Control serum Blood-bank to linear peptides / Binding of Control serum LUMC to looped peptides / Binding of Control Serum Blood-Bank to Looped peptides / Binding of Control serum LUMC to linear peptides of the protein M of SARS-CoV Urbani / Binding of Control serum Blood-bank to linear peptides of the protein M of SARS-CoV Urbani / Binding of Control serum LUMC to looped peptides of the protein M of SARS-CoV Urbani / Binding of Control Serum Blood-Bank to Looped peptides of the protein M of SARS-CoV Urbani: unit not given here

QSTALQELLIQQWIQ
0.6: Binding of serum 1a to linear peptides of protein X2 [2] | Binding of serum 1a to looped/cyclic peptides of protein X2 of SARS-CoV Urbani [2] | Binding of serum 62 to looped/cyclic peptides of protein X2 of SARS-CoV Urbani [2] | Binding of serum SARS-green to linear peptides of protein X2 [2] | Binding of Control Serum Blood-Bank to Looped peptides [3] | Binding of Control serum Blood-bank to linear peptides [3] | Binding of Control serum LUMC to looped peptides [3]
0.4: Binding of a rabbit serum to looped peptides [1] | Binding of serum 1b to linear peptides of protein X2 [2] | Binding of serum 2 to linear peptides of protein X2 [2] | Binding of serum 2 to looped/cyclic peptides of protein X2 of SARS-CoV Urbani [2] | Binding of serum 6 to linear peptides of protein X2 [2] | Binding of serum 37 to looped/cyclic peptides of protein X2 of SARS-CoV Urbani [2] | Binding of serum SARS-green to looped/cyclic peptides of protein X2 of SARS-CoV Urbani [2] | Binding of serum SARS-yellow to linear peptides of protein X2 [2] | Binding of serum SARS-yellow to looped/cyclic peptides of protein X2 of SARS-CoV Urbani [2] | Binding of Control serum LUMC to linear peptides [3]
0.5: Binding of serum 1b to looped/cyclic peptides of protein X2 of SARS-CoV Urbani [2] | Binding of serum 37 to linear peptides of protein X2 [2] | Binding of serum 62 to linear peptides of protein X2 [2] | Binding of serum London to linear peptides of protein X2 [2]
0.2: Binding of a rabbit serum to linear peptides [1] | Binding of serum 6 to looped/cyclic peptides of protein X2 of SARS-CoV Urbani [2] | Binding of serum London to looped/cyclic peptides of protein X2 of SARS-CoV Urbani [2]

NTRGNTYSTAWLCAL
0.3: Binding of serum SARS-green to looped/cyclic peptides of protein X5 of SARS-CoV Urbani [2]
0.8: Rabbit serum linear peptides [1] | Binding of Control serum Blood-bank to linear peptides [3]
0.9: Binding of serum 1a to linear peptides of protein X5 of SARS-CoV Urbani [2]
0.5: Rabbit serum looped peptides [1] | Binding of serum 37 to looped/cyclic peptides of protein X5 of SARS-CoV Urbani [2] | Binding of serum SARS-yellow to linear peptides of protein X5 of SARS-CoV Urbani [2] | Binding of serum SARS-yellow to looped/cyclic peptides of protein X5 of SARS-CoV Urbani [2] | Binding of Control serum LUMC to looped peptides [3]
0.1: Binding of serum London to looped/cyclic peptides of protein X5 of SARS-CoV Urbani [2]
0.6: Binding of serum 1b to linear peptides of protein X5 of SARS-CoV Urbani [2] | Binding of serum 2 to linear peptides of protein X5 of SARS-CoV Urbani [2] | Binding of serum SARS-green to linear peptides of protein X5 of SARS-CoV Urbani [2]
0.2: Binding of serum 1b to looped/cyclic peptides of protein X5 of SARS-CoV Urbani [2] | Binding of serum 6 to looped/cyclic peptides of protein X5 of SARS-CoV Urbani [2]
0.4: Binding of serum 1a to looped/cyclic peptides of protein X5 of SARS-CoV Urbani [2] | Binding of serum 2 to looped/cyclic peptides of protein X5 of SARS-CoV Urbani [2] | Binding of Control Serum Blood-Bank to Looped peptides [3]
0.7: Binding of serum 6 to linear peptides of protein X5 of SARS-CoV Urbani [2] | Binding of serum 37 to linear peptides of protein X5 of SARS-CoV Urbani [2] | Binding of serum 62 to linear peptides of protein X5 of SARS-CoV Urbani [2] | Binding of serum 62 to looped/cyclic peptides of protein X5 of SARS-CoV Urbani [2] | Binding of serum London to linear peptides of protein X5 of SARS-CoV Urbani [2] | Binding of Control serum LUMC to linear peptides [3]

RIIMRCWLCWKCKSK
0.2: Binding of serum 1a to looped/cyclic peptide (PEPSCAN-ELISA) [2] | Binding of serum 1b to looped/cyclic peptide (PEPSCAN-ELISA) [2] | Binding of serum 37 to looped/cyclic peptide (PEPSCAN-ELISA) [2] | Binding of Control serum LUMC to linear peptides [3]
recognized in linear form: Recognition of the peptide by sera of SARS-CoV infected individuals, and form (linear, looped/cyclic) in which it is recognized [2]
0.3: Binding of a rabbit serum to looped peptides [1] | Binding of serum 62 to looped/cyclic peptide (PEPSCAN-ELISA) [2] | Binding of Control Serum Blood-Bank to Looped peptides [3] | Binding of Control serum Blood-bank to linear peptides [3] | Binding of Control serum LUMC to looped peptides [3]
0.1: Binding of a rabbit serum to linear peptides [1] | Binding of serum 2 to looped/cyclic peptide (PEPSCAN-ELISA) [2] | Binding of serum 6 to looped/cyclic peptide (PEPSCAN-ELISA) [2] | Binding of serum London to looped/cyclic peptide (PEPSCAN-ELISA) [2] | Binding of serum SARS-green to looped/cyclic peptide (PEPSCAN-ELISA) [2] | Binding of serum SARS-yellow to looped/cyclic peptide (PEPSCAN-ELISA) [2]
